Assay results from US11802129B1, “Pyrido[3,4-b]indol-1-one compounds as anticancer agents” (KING FAISAL UNIVERSITY, priority 2023, dated 2023).

Tests used:
MDA-MB-231 (breast) = test: In vitro cytotoxic activity (MTT) assay, MDA-MB-231; format: cell-based; details: Human MDA-MB-231 (breast) cells, exposed for 96 hours
Method: (§1) Compounds 1-10 were screened for their in vitro cytotoxic activity utilizing a 3-(4,5-dimethyl-thiazol-2-yl)-2,5-diphenyltetrazolium bromide (MTT) assay against selected cancer murine and human cancer cell lines (T. Mosmann, J. Immunol. Meth., 1983, 65, 55-63). The cells were cultured at 37° C. in RMPI1640 medium supplemented with 10% fetal bovine serum, 50 IU/mL penicillin, and 50 μg/mL streptomycin in a 5% CO2 incubator. All cells were sub-cultured 3 times/week by trypsinisation. Viable cells were seeded and allowed to adhere for 12 h before a test drug was added in 96-well plates at an initial density of 1.0×10^5 cells/mL. Tumour cell lines were separately exposed to various concentrations of the tested compounds followed by incubation at a temperature of 37° C. during 4 days inside a medium of fresh RMPI 1640. Cells were subsequently incubated at 37° C. using MTT at 0.5 mg/mL during 4 h. After removal of supernatant, formazan crystals were dissolved in isopropanol and the optical density was measured at 570 nm. CX-4945 has been used as a positive control.

B16 melanoma = test: In vitro cytotoxic activity (MTT) assay, B16 melanoma; format: cell-based; details: Mus musculus; Murine B16 melanoma cells, exposed for 96 hours
Method: as §1

HL60 (leukemia) = test: In vitro cytotoxic activity (MTT) assay, HL60; format: cell-based; details: HL-60; Human HL60 (leukemia) cells, exposed for 96 hours
Method: as §1

HCT116 (colon) = test: In vitro cytotoxic activity (MTT) assay, HCT116; format: cell-based; details: HCT-116; Human HCT116 (colon) cells, exposed for 96 hours
Method: as §1

Colon C38 adenocarcinoma = test: In vitro cytotoxic activity (MTT) assay, Colon C38 adenocarcinoma; format: cell-based; details: Mus musculus; Murine Colon C38 adenocarcinoma cells, exposed for 96 hours
Method: as §1

PC3 (prostate) = test: In vitro cytotoxic activity (MTT) assay, PC3; format: cell-based; details: Prostate cell; Human PC3 (prostate) cells, exposed for 96 hours
Method: as §1

MCF7 (breast) = test: In vitro cytotoxic activity (MTT) assay, MCF7; format: cell-based; details: Human MCF7 (breast) cells, exposed for 96 hours
Method: as §1

H1299 (lung) = test: In vitro cytotoxic activity (MTT) assay, H1299; format: cell-based; details: NCI-H1299; Human H1299 (lung) cells, exposed for 96 hours
Method: as §1

CK2 = biological target: T1, CK2 (Homo sapiens, UniProt P68400); test: In vitro CK2 inhibitory assay (CK2 assay kit); format: biochemical; details: CK2 assay kit (Upstate Biotechnology)
T1 construct: purchased Upstate Biotechnology, Lake Placid, NY, USA
T1 sequence (P68400 whole entry): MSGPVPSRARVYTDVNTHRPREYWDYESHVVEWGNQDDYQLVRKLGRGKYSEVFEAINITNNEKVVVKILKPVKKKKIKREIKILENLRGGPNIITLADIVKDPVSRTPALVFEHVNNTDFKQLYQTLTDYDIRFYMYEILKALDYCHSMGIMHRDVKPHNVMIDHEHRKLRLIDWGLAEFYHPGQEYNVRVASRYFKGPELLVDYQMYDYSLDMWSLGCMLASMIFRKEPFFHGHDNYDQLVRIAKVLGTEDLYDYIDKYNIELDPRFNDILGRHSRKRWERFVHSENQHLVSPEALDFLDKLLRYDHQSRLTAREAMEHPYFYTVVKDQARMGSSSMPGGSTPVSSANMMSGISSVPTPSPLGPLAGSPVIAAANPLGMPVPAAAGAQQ
Method: CK2 activity was assessed by using a CK2 assay kit (Upstate Biotechnology, Lake Placid, NY, USA) according to the manufacturer's instructions [T. Tiganis, C. M. House, B. E. Kemp, Arch. Biochem. Biophys. 1996,325, 289-294].

MIAPaCa-2 (pancreas) = test: In vitro cytotoxic activity (MTT) assay, MIAPaCa-2; format: cell-based; details: MIA PaCa-2; Human MIAPaCa-2 (pancreas) cells, exposed for 96 hours
Method: as §1

A375 (melanoma) = test: In vitro cytotoxic activity (MTT) assay, A375; format: cell-based; details: A-375; Human A375 (melanoma) cells, exposed for 96 hours
Method: as §1

Leukemia P388 = test: In vitro cytotoxic activity (MTT) assay, Leukemia P388; format: cell-based; details: Mus musculus; Murine Leukemia P388 cells, exposed for 96 hours
Method: as §1

O=C(O)c1ccc2[nH]c3c(=O)[nH]cc(Nc4cccc(Cl)c4)c3c2c1 [Example 3, 4-((3-chlorophenyl)amino)-1-oxo-2,9-dihydro-1H-pyrido[3,4-b]indole-6-carboxylic acid] gave an IC50 (MDA-MB-231 (breast)) of 6.6 µM, an IC50 (B16 melanoma) of 6.8 µM and an IC50 (HL60 (leukemia)) of 6.3 µM. It also gave an IC50 (HCT116 (colon)) of 3.3 µM, an IC50 (Colon C38 adenocarcinoma) of 4.4 µM and an IC50 (PC3 (prostate)) of 2600 nM. For the same compound, the IC50 (MCF7 (breast)) was 7.5 µM, the IC50 (H1299 (lung)) was 2100 nM and the IC50 (CK2) was 5 nM. The IC50 (MIAPaCa-2 (pancreas)) was 5.7 µM, the IC50 (A375 (melanoma)) was 4.4 µM and the IC50 (Leukemia P388) was 5.5 µM.
